Laboratory results published in patent publication US9938335B2, “Glucagon and GLP-1 co-agonist compounds” (Eli Lilly and Company, priority 2015, dated 2018).
Values after ≈ are worked out from the molar mass of the structure shown. Like-named read-outs stand apart in the source and are kept apart here. Marks after values point to notes of the source that are not given here.

How the values were obtained:
DIO mice (C57BL/6) [1] = test: Glycemic control in DIO mice; type: in vivo, mouse; settings: for Blood glucose (mg/dL) post-injection, Mean: male DIO mice, 25 nmol/kg sc once
Procedure: Five to six months old male DIO mice (C57BL/6) from Taconic Biosciences are used in this study. Animals are individually housed in a temperature-controlled (24° C.) facility with a 12 hour light/dark cycle (lights on 6:00), and free access to food and water. After two weeks acclimation to the facility, the mice are randomized to treatment groups (n=7/group) based on their body weight and blood glucose. Mice are injected subcutaneously once with vehicle or compounds (25 nmol/kg). Blood glucose is monitored 2 and 8 hours post-injection and then once a day at 08:00 for 4 days. OGTTs are performed at 44 and 78 hours post the peptide injection. Statistics are analyzed using ANOVA with Dunnett's comparison by JMP 6. Significance is denoted at p≤0.05 vs vehicle.

hGLP-1-R [2] = target: T1, hGLP-1-R (Homo sapiens, UniProt P43220); test: Functional hGLP-1-R assay (cAMP HTRF, HEK-293 clonal cell line); type: cell-based; parameters: expressed in transfected cells; host or cells: HEK-293 clonal cell line over-expressing the receptor
T1 sequence (P43220 24-463): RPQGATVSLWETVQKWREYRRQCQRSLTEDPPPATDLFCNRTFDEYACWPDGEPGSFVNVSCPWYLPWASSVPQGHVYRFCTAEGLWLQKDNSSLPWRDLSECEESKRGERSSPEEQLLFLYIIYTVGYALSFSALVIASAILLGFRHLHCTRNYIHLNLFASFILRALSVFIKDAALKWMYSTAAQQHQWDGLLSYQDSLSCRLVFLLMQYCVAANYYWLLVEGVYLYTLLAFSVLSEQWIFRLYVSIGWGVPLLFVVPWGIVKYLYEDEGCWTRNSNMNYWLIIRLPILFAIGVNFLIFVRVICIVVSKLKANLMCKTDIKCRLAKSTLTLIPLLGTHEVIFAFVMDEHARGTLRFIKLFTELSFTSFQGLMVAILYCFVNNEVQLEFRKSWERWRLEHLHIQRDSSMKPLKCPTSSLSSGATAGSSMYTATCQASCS
Procedure: (§1) After a 60 minute incubation at room temperature, the resulting increase in intracellular cAMP (adenosine 3′,5′-cyclic monophosphate) is quantitatively determined using the CisBio cAMP Dynamic 2 HTRF Assay Kit (62AM4PEJ). cAMP levels within the cell are detected by adding the cAMP-d2 conjugate in cell lysis buffer (20 μl) followed by the antibody anti-cAMP-Eu^3+-Cryptate, also in cell lysis buffer (20 μl).
(§2) A relative EC50 value and percent top (Emax) are derived by non-linear regression analysis using the percent maximal response vs. the concentration of peptide added, fitted to a four-parameter logistic equation (Genedata Screener®).
(§3) Means for EC50 are expressed as Geometric means±standard error of the mean (SEM) with the number of replicates (n) indicated in parenthesis. Means for Emax are expressed as the arithmetic mean±standard error. ND signifies that agonist activity was not detected.

hGcg-R = hGcg-R (Homo sapiens, UniProt P47871); test: hGcg-R Binding Assay (SPA radioligand competition, 293HEK membranes); settings: read-out: Ki, nM ± SEM at the hGcg-R
hGcg-R, sequence (P47871 26-477): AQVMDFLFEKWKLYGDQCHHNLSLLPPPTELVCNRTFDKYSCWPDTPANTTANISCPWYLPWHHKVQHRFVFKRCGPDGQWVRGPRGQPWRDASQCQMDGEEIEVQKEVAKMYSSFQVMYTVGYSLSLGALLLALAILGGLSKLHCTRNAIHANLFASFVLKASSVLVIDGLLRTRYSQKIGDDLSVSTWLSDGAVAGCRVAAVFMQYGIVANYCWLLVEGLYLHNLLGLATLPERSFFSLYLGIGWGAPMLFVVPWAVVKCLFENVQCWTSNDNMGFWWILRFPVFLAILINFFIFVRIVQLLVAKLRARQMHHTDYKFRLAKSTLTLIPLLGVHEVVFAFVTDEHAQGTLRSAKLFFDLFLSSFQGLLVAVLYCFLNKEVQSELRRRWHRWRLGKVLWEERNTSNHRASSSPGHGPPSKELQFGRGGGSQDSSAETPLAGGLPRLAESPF

[3] = Solubility (RP-HPLC and HPLC-SEC, 1 week at 4° C.); type: physicochemical
Procedure: Solubility of compounds of the present invention is measured in an Agilent 1100 HPLC, an Agilent 1200 HPLC and a Nanodrop 2000. The following HPLC columns are used:
(a) RP-HPLC: Waters Symmetry Shield C18, 3.6 um, 4.6×100 mm
(b) HPLC-SEC: Tosoh Biosciences, TSK2000SWXL […]
All peptide concentrations are made at 10 mg/mL in the following:
(a) 10 mM Tris pH 8.0+3 mg/mL m-cresol
(b) 10 mM Tris pH 8.0+3 mg/mL m-cresol+150 mM NaCl
(c) 10 mM Tris pH 8.0+3 mg/mL m-cresol+0.02% Tween-20
5 mL of 10 mg/mL peptide dissolved in 10 mM Tris at pH 8.0 is concentrated to approximately 20 mg/mL using Amicon-ultra 3 kDa MWCO devices. The solution is filtered using Millivex 0.22 μM filters (PVDF membrane) and the final concentration is measured by the NanoDrop spectrometer. This stock solution is used to formulate to the final conditions stated above using 3× m-cresol, 10× NaCl, and 100× Tween-20 stock solutions. A 10 mg/mL PBS solution is also prepared by dissolving directly at 5 mg/mL and concentrating using Amicon-ultra 3 kDa MWCO devices.
Each solution is placed in a refrigerator at 4° C. for 1 week, with analysis by RP-HPLC to assess concentration and HPLC-SEC to assess HMW species formation. Analyses completed at T-0 week and T-1 week.
The solubility of Compounds 1-4 was measured essentially as described in this assay.

Human Gcg-R = target: T2, Human Gcg-R (Homo sapiens, UniProt P47871); test: Functional hGcg-R assay (cAMP HTRF, HEK-293 clonal cell line); type: cell-based
T2 construct: expressed in transfected cells; host or cells: HEK-293 clonal cell line over-expressing the receptor
T2 sequence (P47871 26-477): as above
Procedure: as §1, §2, §3

DIO mice (C57BL/6) [4] = test: Chronic treatment in DIO mice (body weight, fat, food intake); type: in vivo, mouse
Procedure: The effects on food intake and body weight/fat are evaluated in DIO mice. Five to six months old DIO mice (C57BL/6) from Taconic Biosciences are used in this study. Animals are individually housed in a temperature-controlled (24° C.) facility with a 12 hour light/dark cycle (lights on 6:00), and free access to food and water. The mice are acclimated to the facility for two weeks. The day before the study start, fat mass is measured by nuclear magnetic resonance (NMR) using an Echo Medical System (Houston, Tex.) instrument. The mice are randomized to treatment groups (N=7/group) based on body weight and fat mass so each group had similar starting mean body weight and fat mass. […] SC injections are made on Day 1, 4, 7, 10, and 13. Body weight and food intake are measured right before each injection throughout the study. Percent changes in body weight are calculated as follows: […]
At the completion of the study, total fat mass is measured again by NMR. Statistics are analyzed using ANOVA with Dunnett's comparison by JMP 6. Significance is denoted at p≤0.05 vs. vehicle.

hGLP-1-R [5] = target: T1, hGLP-1-R; test: hGLP-1R Binding Assay (SPA radioligand competition, 293HEK membranes); parameters: expressed in transfected cells; host or cells: 293HEK, stably transfected with plasmid phD, Hygromycin-selected; crude plasma membranes; settings: read-out: Ki, nM ± SEM at the hGLP-1-R
DIO mice (C57BL/6) [6] = test: Acute treatment in DIO mice (PCSK9, FGF-21, cholesterol); type: in vivo, mouse; settings: 30 nmol/kg sc, 16 hours post dose
Procedure: In order to investigate metabolic pathways involved with the treatment of compounds of the present invention independent of weight loss, compounds are tested in DIO mice (C57BL/6) acutely. The mice used are three to four months old on a high fat diet for at least 4 weeks. Animals are individually housed in a temperature-controlled (24° C.) facility with a 12 hour light/dark cycle (lights on 6:00), and free access to food and water. Vehicle or testing compounds were administered to mice by subcutaneous injection at 16:00 the day before the study day. Animals were sacrificed 16 hours later to collect blood via cardia puncture. Statistics are analyzed using ANOVA with Dunnett's comparison for JMP-6. Significance is denoted at p≤0.05 vs vehicle.
Food intake was decreased to a similar level in all treatment groups, which may indicate that changes in cholesterol, PCSK9 and FGF-21 are food-intake independent.

[7] = 15 nmol/kg sc every three days for 15 days
[8] = 30 nmol/kg sc every three days for 15 days

SMILES: CC(C)C[C@H](NC(=O)[C@H](CC(C)C)NC(=O)[C@H](Cc1c[nH]c2ccccc12)NC(=O)[C@H](CCC(=O)O)NC(=O)[C@@H](NC(=O)[C@H](Cc1ccccc1)NC(=O)[C@H](CCC(=O)O)NC(=O)[C@H](CCCCNC(=O)COCCOCCNC(=O)COCCOCCNC(=O)CC[C@H](NC(=O)CCCCCCCCCCCCCCCCC(=O)O)C(=O)O)NC(=O)[C@H](C)NC(=O)[C@H](CCCCN)NC(=O)[C@H](CCCCN)NC(=O)[C@H](CCC(=O)O)NC(=O)[C@H](CC(=O)O)NC(=O)[C@H](CC(C)C)NC(=O)[C@H](Cc1ccc(O)cc1)NC(=O)[C@H](CCCCN)NC(=O)[C@H](CO)NC(=O)[C@H](Cc1ccc(O)cc1)NC(=O)[C@H](CC(=O)O)NC(=O)[C@H](CO)NC(=O)[C@@H](NC(=O)[C@H](Cc1ccccc1)NC(=O)[C@@H](NC(=O)CNC(=O)[C@H](CCC(N)=O)NC(=O)C(C)(C)NC(=O)[C@@H](N)Cc1c[nH]cn1)[C@@H](C)O)[C@@H](C)O)C(C)C)C(=O)N[C@@H](CCC(=O)O)C(=O)NCC(=O)NCC(=O)N1CCC[C@H]1C(=O)N[C@@H](CO)C(=O)N[C@@H](CO)C(=O)NCC(N)=O [Compound 1]
- 44 hours Glucose AUC (% of Vehicle) (DIO mice (C57BL/6) [1]; OGTT 44 hours post-injection, 25 nmol/kg sc): 42* % of Vehicle
- 78 hours Glucose AUC (% of Vehicle) (DIO mice (C57BL/6) [1]; OGTT 78 hours post-injection, 25 nmol/kg sc): 90 % of Vehicle
- glucose excursions post an oral glucose challenge (DIO mice (C57BL/6) [1]; OGTTs at 44 and 78 hours post injection, 25 nmol/kg): lower glucose excursions post an oral glucose challenge at 44 hour
- Blood glucose (mg/dL) post-injection, Mean (DIO mice (C57BL/6) [1]; 2 hours post-injection): 168.5 mg/dL
- Blood glucose (mg/dL) post-injection, Mean (DIO mice (C57BL/6) [1]; 8 hours post-injection): 79.4 mg/dL
- Blood glucose (mg/dL) post-injection, Mean (DIO mice (C57BL/6) [1]; 24 hours post-injection): 90.6 mg/dL
- Blood glucose (mg/dL) post-injection, Mean (DIO mice (C57BL/6) [1]; 48 hours post-injection): 101.9 mg/dL
- Blood glucose (mg/dL) post-injection, Mean (DIO mice (C57BL/6) [1]; 72 hours post-injection): 113.4 mg/dL
- Blood glucose (mg/dL) post-injection, Mean (DIO mice (C57BL/6) [1]; 96 hours post-injection): 150.0 mg/dL
- Emax (hGLP-1-R [2]; HEK293): 104 ± 7%
- EC50 (hGLP-1-R [2]; cAMP, 60 minute incubation, 0.25% FBS, 0.05% BSA, geometric mean, read-out: Human GLP-1-R EC50, nM ± SEM (n)): 23.9 ± 4.5 nM
- Ki (hGcg-R): 14.6 ± 4.4 nM
- solubility at 1 week ([3]; 10 mM Tris pH 8.0 + 3 mg/mL m-cresol + 0.02% Tween-20, Tris pH 8 + 3 mg/mL m-cresol + 0.02% Tween-20): 10000 µg/mL
- solubility at 1 week ([3]; 10 mM Tris pH 8.0 + 3 mg/mL m-cresol + 150 mM NaCl, Tris pH 8 + 3 mg/mL m-cresol + 150 mm NaCl): 10000 µg/mL
- solubility at 1 week ([3]; 10 mM Tris pH 8.0 + 3 mg/mL m-cresol, Tris pH 8 + 3 mg/mL m-cresol): 10000 µg/mL
- HMW species formation by SEC-HPLC ([3]; 1 week at 4° C.): No observed HMW species formation by SEC-HPLC;
- solubility at 1 week ([3]; PBS pH 7.4, pH 7.4, read-out: solubility in PBS, pH 7.4): 10000 µg/mL (≈ 2210 µM)
- visible precipitation or phase separation ([3]; after 1 week storage at 4° C.): No visible precipitation or phase separation observed after 1 week
- Emax (Human Gcg-R; HEK293): 112 ± 3%
- EC50 (Human Gcg-R; cAMP, 60 minute incubation, 0.25% FBS, 0.05% BSA, geometric mean, read-out: Human Gcg-R EC50, nM ± SEM, (n)): 7.21 ± 1.06 nM
- Body Fat (% change vs. vehicle from Day 1) (DIO mice (C57BL/6) [4]; [7]): −49* %
- Body Weight (% change vs. vehicle from Day 1) (DIO mice (C57BL/6) [4]; [7]): −19* %
- Body Fat (% change vs. vehicle from Day 1) (DIO mice (C57BL/6) [4]; [8]): −66* %
- Body Weight (% change vs. vehicle from Day 1) (DIO mice (C57BL/6) [4]; [8]): −29* %
- Ki (hGLP-1-R [5]): 23 ± 5.5 nM
- Cholesterol (% of vehicle) (DIO mice (C57BL/6) [6]): 60.9* % of vehicle
- FGF-21 (% of vehicle) (DIO mice (C57BL/6) [6]): 1770* % of vehicle
- PCSK9 (% of vehicle) (DIO mice (C57BL/6) [6]): 14.6* % of vehicle
